Measurements taken from EP1721613A1, “Hesperidin for the treatment of epilepsy, migraine, schizophrenia, depression and drug abuse” (priority 2005, dated 2006).
Entries after “also recorded” stand apart in the source; their conditions may differ.

What was measured:
[1] = tested on: autosomaler dominanter nocturner Frontallappenepilepsie; assay: Therapeutic trial in one patient with drug-resistant epilepsy; type: in vivo, Patientin
Source text: Um das Konzept auch am Patienten zu überprüfen, wurde einer jungen unter autosomaler dominanter nocturner Frontallappenepilepsie leidenden Patientin, die selbst in Gegenwart von 3 Gramm unterschiedlicher Antiepileptika weiterkrampfte (im Mittel 20 Anfälle pro Monat) täglich 1 Gramm Hesperidin abends vor dem Einschlafen oral über einen Zeitraum von 2 Monaten verabreicht. […] Das Ergebnis der Untersuchungen ist in Abb. 12 dokumentiert.

Fischer-344 Ratten = assay: Tele-Stereo-EEG (changes of EEG frequencies in freely moving rats); type: in vivo, Ratte
Method: Die Veränderungen der EEG-Frequenzen nach intraperitonealer Gabe von Salzlösung (Kontrolle) bzw. verschiedener Dosen von Hesperidin (10 bis 300 mg/kg Körpergewicht sowie oral 500 mg/kg) wurden bestimmt. Ebenso wurden verschiedene Dosierungen von Hesperetin (80-320 mg/kg i.p. sowie 500 mg/kg oral untersucht.
Die Untersuchungen wurden analog der durch W. Dimpfel beschriebenen Methode (Dimpfel W Preclinical data base of pharmaco-specific rat EEG fingerprints (Tele-Stereo-EEG). Eur J Med Res (2003) 8: 199-207) folgendermaßen durchgeführt: Zwölf männlichen erwachsenen Fischer-344 Ratten (Tag-Nacht konvertiert) wurden im Alter von 6 Monaten 4 bipolar konzentrische Elektroden zusammen mit einem Mikrostecker auf einer gemeinsamen Basisplatte implantiert. Der Stecker diente der Aufnahme eines 4-Kanal-Senders zur telemetrischen Übertragung der aus frontalem Kortex, Hippokampus, Striatum und Formatio Reticularis abgeleiteten Feldpotentiale. Die Signale wurden auf einem Computer System (Software "EEG-Analyse", Betriebssystem OS Science, Laborrechner "LabTeam" der Firma MediSyst, Linden, DE) in Echtzeit einer Fast-Fourier-Transformation unterworfen und die Leistungsdichtespektren jeweils über 60 Minuten gemittelt. Die Unterteilung der Spektren in 6 verschiedene Frequenzbereiche erlaubte die Erfassung pharmako-spezifischer Veränderungen in Bezug auf die jeweils vor Applikation gemessenen Vorwerre innerhalb dieser Frequenzbänder.
Zum Applikationsprotokoll der Substanzen: die Substanzen wurden i.p. 45 Minuten nach Beginn der Messungen (Vorwert) injiziert. Fünf Minuten später wurden die Messungen wieder gestartet, mindestens über die nächsten 5 Stunden kontinuierlich analysiert und in 60-minütigen Perioden zusammengefaßt. Die Testsubstanzen wurden in einer Dosierung von 10 bis 500 mg/kg appliziert. Die experimentelle Serie wurde mit der Injektion von Salzlösung (Kontrolle), die zu keiner auffälligen Änderung führte, begonnen.
Der statistische Vergleich der Versuche zu den Ergebnissen, die nach Gabe von Salzlösung gemessen wurde, erfolgte mit Hilfe einer multivariaten Analyse nach Ahrens und Läuter (siehe H. Ahrens, J. Läuter "Mehrdimensionale Varianzanalyse" (1974), Akademie Verlag, Berlin) auf der Basis der Veränderungen innerhalb der einzelnen Frequenzbänder in allen Hirnregionen als Variablen.

[2] = tested on: Pyramidenzellen des Hippokampus; assay: Hippocampal slice ex vivo after 7 days of in vivo dosing: provocation with 4-aminopyridine; design: species or system Ratte; details: 500 mg/kg daily over 7 days in vivo, compared with placebo
Source text: Wirkungen von Hesperidin und Hesperetin auf die Erregbarkeit der Pyramidenzellen wurden im Hippokampus-Schnittpräparat der Ratte bestimmt. Die Analyse der Wirkungen erfolgte auf drei Ebenen. Zunächst wurde anhand der Applikation von Einzelreizen die normale Erregbarkeit überprüft und anschließend nach einer sog. "Theta-burst-Stimulation" die Auswirkungen auf die Langzeitpotenzierung gemessen. Im nächsten Schritt wurde versucht, die Wirkung von Krampf auslösenden Substanzen zu antagonisieren. […]
Dieselbe Versuchsanordnung wurde letztendlich noch einmal nach in vivo Applikation beider Substanzen in einer repetitiven Dosierung von 500 mg/kg täglich über 7 Tage im Vergleich zu Placebo angewandt (sog. "ex vivo" Design). Dabei sollte überprüft werden, ob eine repetitive Gabe zur Erregbarkeitsveränderungen der Pyramidenzellen des Hippokampus führt. […] Dieses Ergebnis ist auch ein Hinweis darauf, dass in vivo neben dem im Darm entstehenden Hesperetin auch genügend wirksames Hesperidin das Gehim erreicht. Gleichzeitig wird dadurch nochmals bestätigt, dass Hesperidin und Hesperetin ein unterschiedliches Wirkprofil haben.

[3] = tested on: Pyramidenzellen im Hippokampus-Schnittpräparat; assay: Hippocampal slice in vitro: antagonism of the 4-aminopyridine-induced change of excitability; type: cell-based, Ratte; details: superfused together with 4-Aminopyridin
Source text: (§1) Wirkungen von Hesperidin und Hesperetin auf die Erregbarkeit der Pyramidenzellen wurden im Hippokampus-Schnittpräparat der Ratte bestimmt. Die Analyse der Wirkungen erfolgte auf drei Ebenen. Zunächst wurde anhand der Applikation von Einzelreizen die normale Erregbarkeit überprüft und anschließend nach einer sog. "Theta-burst-Stimulation" die Auswirkungen auf die Langzeitpotenzierung gemessen. Im nächsten Schritt wurde versucht, die Wirkung von Krampf auslösenden Substanzen zu antagonisieren. In einer dritten Versuchsserie wurde die Substanz eine Woche lang appliziert und dann "ex vivo" die Änderung der Erregbarkeit auf eine Provokation mit der Krampf auslösenden Substanz 3-Aminopyridin (3-AP) gemessen.
(§2) Für die Durchführung dieser Studien wurden 30 erwachsene männliche CD-Ratten verwendet. Die Isolation des Hippokampus erfolgte an äthemarkotisierten und anschließend exsanguinierten Tieren.
Das Experiment selbst wurde in einer sog. "Base Unit" mit Haas Top" (Firma Medical Systems Corp., USA) bei 35 Grad Celsius durchgeführt. Der mit Hilfe peristaltischer Pumpen (Infusomat B. Braun Melsungen AG) superfundierte Hippokampus-Schnitt lag auf einem Stück Gaze. Eingeleitetes Carbogen hielt die erforderliche Sauerstoffzufuhr der Lösung aufrecht. Die Durchflussgeschwindigkeit betrug 200 ml/h. […]

[4] = tested on: Pyramidenzellen im Hippokampus-Schnittpräparat; assay: Hippocampal slice in vitro: population spike after single stimuli and long-term potentiation after theta-burst stimulation; type: cell-based, Ratte; details: n=6 slices; for Langzeitpotenzierung durch TBS: theta-burst stimulation, 5 bis 60 µM for Hesperidin
Source text: as §1, §2
Das Experiment selbst wurde in einer sog. "Base Unit" mit Haas Top" (Firma Medical Systems Corp., USA) bei 35 Grad Celsius durchgeführt. Der mit Hilfe peristaltischer Pumpen (Infusomat B. Braun Melsungen AG) superfundierte Hippokampus-Schnitt lag auf einem Stück Gaze. Eingeleitetes Carbogen hielt die erforderliche Sauerstoffzufuhr der Lösung aufrecht. Die Durchflussgeschwindigkeit betrug 200 ml/h.
Die Stimulation der CA2-Region (Schaffer-Kollateralen) erfolgte unter Verwendung eines Reizgenerators (Laborcomputer Labteam der Fa. MediSyst GmbH, Linden, DE) über eine Isoliereinheit mit Hilfe einer bipolar konzentrischen Stahlelektrode (Rhodes Medical Systems, USA. Die Impulsbreite betrug 200 µs, die Stromstärke konstant 200 µA. Der Reizgenerator löste im Abstand von jeweils 20 Sekunden 4 Einzelreizungen aus, die im Schnitt insgesamt 4 Populationsspikes evozierten. Die Ableitung der Antwort erfolgte in der […] Region. Das System mittelte die Reizantwort der 4 Spike-Amplituden.
Dabei wurde der Schnitt zunächst mit Kontrolllösung superfundiert. […]

COc1ccc([C@@H]2CC(=O)c3c(O)cc(O[C@@H]4O[C@H](CO[C@@H]5O[C@@H](C)[C@H](O)[C@@H](O)[C@H]5O)[C@@H](O)[C@H](O)[C@H]4O)cc3O2)cc1O [Hesperidin, Hesperetin 7-rhamnoglucosid]
Ausprägung des alpha1 Fokus im Frontallappen (Nachuntersuchung) ([1]; 1 Gramm daily orally for 2 months): deutlich geringere Ausprägung des alphal Fokus im Frontallappen
Häufigkeit der Anfälle ([1]; 1 Gramm daily orally in the evening for 2 months, baseline on average 20 seizures per month under 3 g antiepileptics): um die Hälfte reduziert
Veränderungen der Leistungsdichte in den einzelnen Hirnregionen (Fischer-344 Ratten; 20 mg/kg i.p.): Zunahmen der alpha1 und beta Aktivität
Veränderungen der Leistungsdichte in den einzelnen Hirnregionen (Fischer-344 Ratten; 40 mg/kg i.p.): Zunahmen der elektrischen Leistung im alpha1 und beta Bereich
Veränderungen der Leistungsdichte in den einzelnen Hirnregionen (Fischer-344 Ratten; 300 mg/kg i.p., significant at least at P < 5%): generellen Abfall der elektrischen Leistung
Veränderungen der Leistungsdichte in den einzelnen Hirnregionen (Fischer-344 Ratten; 80 und 160 mg/kg i.p., statistically significant pattern, seen over the 5 hours of the test): Abnahmen der elektrischen Leistung im delta, theta und alpha2 Bereich
EEG-Muster im Vergleich zu Referenzmedikamenten (Diskriminanzanalyse) (Fischer-344 Ratten; higher dose): dem nach Gabe klassischer Antidepressiva
EEG-Muster im Vergleich zu Referenzmedikamenten (Diskriminanzanalyse) (Fischer-344 Ratten; low doses): wie es für die Applikation von Mitteln gegen Migräne und Schizophrenie (Metoprolol bzw. Haloperidol und Risperidon) typisch ist
durch 4-Aminopyridin provozierte Erhöhung der Erregbarkeit (ex vivo) [2]: Unterdrückung der durch 4-Aminopyridin provozierten Erhöhung
Änderung der Erregbarkeit der Pyramidenzellen durch die Gegenwart von 4-Aminopyridin [3]: vermindert
Amplitude des Populationsspikes bei Einzelreizung ([4]; single stimuli, 5 bis 60 µM): Unterdrückung der Pyramidenzellaktivität nach Einzelreizung; also recorded: Konzentrations-abhängigen Abfall der Amplitude des Populationsspikes
Langzeitpotenzierung durch TBS [4]: Unterdrückung der Langzeitpotenzierung; also recorded: Konzentrations-abhängig unterdrückt

COc1ccc([C@@H]2CC(=O)c3c(O)cc(O)cc3O2)cc1O [Hesperetin]
Veränderungen der elektrischen Hirnaktivität (Fischer-344 Ratten; 320 mg/kg i.p., after 2 hours, frontal cortex): Zunahmen der delta und alpha2 Aktivität
EEG-Muster im Vergleich zu Referenzmedikamenten (Diskriminanzanalyse) (Fischer-344 Ratten; higher dose): dem klassischer Antikonvulsiva ähnlich
Veränderungen der elektrischen Hirnaktivität (Fischer-344 Ratten; i.p. single dose, low dose range): im niedrigen Dosisbereich dem nach Gabe von Hesperidin entsprach
EEG-Muster im Vergleich zu Referenzmedikamenten (Diskriminanzanalyse) (Fischer-344 Ratten; low doses): wie es für die Applikation von Mitteln gegen Migräne und Schizophrenie (Metoprolol bzw. Haloperidol und Risperidon) typisch ist
durch 4-Aminopyridin provozierte Erhöhung der Erregbarkeit (ex vivo) [2]: nicht jedoch in den mit Placebo oder Hesperetin behandelten Tieren
Änderung der Erregbarkeit der Pyramidenzellen durch die Gegenwart von 4-Aminopyridin [3]: nicht jedoch von Hesperetin vermindert

Fc1ccc([C@@H]2CCNC[C@H]2COc2ccc3c(c2)OCO3)cc1 [Paroxetin, reference compound]
Langzeitpotenzierung durch TBS [4]: unterdrückt die Langzeitpotenzierung
